# Data from US9481709B2, “Boropeptide inhibitors of enteropeptidase and their uses in treatment of obesity, overweight and/or diseases associated with an abnormal fat metabolism” (OBE THERAPY BIOTECHNOLOGY, priority 2007, dated 2016).
# Assay: Effect on triglyceride absorption after oral gavage with clinoleic 20% + cholesterol
# Format: in vivo, mice
# Conditions: for triglycerides, area under the curve: 0-360 min
# Protocol: 2. Effect of OBE2001 on Triglyceride Absorption The scope of this second in vivo experiment was to analyse the effects of the OBE2001 compound on triglycerides absorption. To that purpose, mice were injected with OBE2001, before and/or after gavage with a solution enriched with cholesterol and free fatty acids (clinoleic at 20%). In this study, 7 week old Swiss CD1 male mice were weighed and randomized for body weight; 3 groups of 5 mice were then constituted of: • Group 1 (solvant): control group. Vehicle (H2O+2% DMSO) at t-5 min+solution A (clinoleic 20%+cholesterol) at t0. • Group 2 (OBE 25+25): OBE2001 25 mg/kg (before and after gavage). OBE2001 25 mg/kg (solution B) at t-5 min+OBE2001 25 mg/kg in solution A (solution C) at t0. • Group 3 (OBE 25): OBE2001 25 mg/kg […]. Vehicle (H2O+2% DMSO) at t-5 min+OBE2001 25 mg/kg in solution A (solution C) at t0. 30 minutes before treatment (with solution A, B or C) blood was collected by retro orbital puncture after a slight anaesthesia (Isoflurane), to determine basal (t0) triglycerides levels. All solutions were then administered by oral gavage at t-5 (vehicle or solution B) or t0 (solution A or C). After administration of the solution A or C (containing fatty acids+cholesterol), blood was collected again by retro orbital puncture after a slight anaesthesia (Isoflurane) at time 60, 120, 180, 300 and 360 minutes for measurement of triglycerides levels. At time 360 minutes, mice were sacrificed.
smiles,measurement,setting,value
CC(=O)N[C@@H](C)C(=O)N[C@@H](Cc1ccccc1)C(=O)N[C@@H](CCCNC(=N)N)B1OC2C[C@@H]3C[C@@H](C3(C)C)[C@]2(C)O1 (stereo partly drawn) [OBE2001],"triglycerides, area under the curve","Group 2, 25+25 mg/kg",48559
same,"triglycerides, area under the curve","Group 3, 25 mg/kg",56273
same,triglyceride absorption compared to the control group,"25 mg/kg, groups 2 and 3",decrease in triglyceride absorption
same,"plasma triglycerides, % of basal value","60 min, Group 2, 25 mg/kg at t-5 min + 25 mg/kg at t0, oral gavage",243.39 % of basal value
same,"plasma triglycerides, % of basal value","60 min, Group 3, single 25 mg/kg in solution A at t0, oral gavage",293.17 % of basal value
same,"plasma triglycerides, % of basal value","120 min, Group 2, 25 mg/kg at t-5 min + 25 mg/kg at t0, oral gavage",202.34 % of basal value
same,"plasma triglycerides, % of basal value","120 min, Group 3, single 25 mg/kg in solution A at t0, oral gavage",269.24 % of basal value
same,"plasma triglycerides, % of basal value","180 min, Group 2, 25 mg/kg at t-5 min + 25 mg/kg at t0, oral gavage",127.81 % of basal value
same,"plasma triglycerides, % of basal value","180 min, Group 3, single 25 mg/kg in solution A at t0, oral gavage",126.45 % of basal value
same,"plasma triglycerides, % of basal value","300 min, Group 2, 25 mg/kg at t-5 min + 25 mg/kg at t0, oral gavage",62.35 % of basal value
same,"plasma triglycerides, % of basal value","300 min, Group 3, single 25 mg/kg in solution A at t0, oral gavage",70.22 % of basal value
same,"plasma triglycerides, % of basal value","360 min, Group 2, 25 mg/kg at t-5 min + 25 mg/kg at t0, oral gavage",56.71 % of basal value
same,"plasma triglycerides, % of basal value","360 min, Group 3, single 25 mg/kg in solution A at t0, oral gavage",60.92 % of basal value
same,% of decrease of triglyceride area under the curve versus group 1,"Group 2/group 1, 25+25 mg/kg, 25 mg/kg",26%
same,% of decrease of triglyceride area under the curve versus group 1,"Group 3/group 1, 25 mg/kg",14%
